Experimental data taken from ChEMBL document CHEMBL5729023, “Tricyclic compounds for use in treatment of proliferative disorders” (2022).
pIC50: −log10 of the molar value.

Target: PRMT5/MEP50 complex (Homo sapiens, UniProt O14744)
Assay: Chemiluminescent Assay: A PRMT5 chemiluminescent assay was used to measure the […] activity of PRMT5. Biotinylated histone peptides were synthesized and attached to 384-well plates. Compound serial dilutions were performed and added to the assay plate. Histone H4 monomethyl R3 antibody was obtained from Abcam. A master mix for each well was prepared and human PRMT5/MEP50 (expressed in HEK293 cells) diluted in assay buffer to a concentration of 5 ng/μL. The reaction was incubated and slowly rotated for 60 minutes at the point of PRMT5/MEP50 addition. The supernatant from the wells was removed and blocking buffer was added to each well and rotated for 10 minutes. The primary antibody was diluted and added to every well for 60 minutes, before it was removed and the wells washed. The horse radish peroxidase (HRP)-coupled secondary antibody was diluted and added to each well with an incubation time of 30 minutes. The HRP chemiluminescent substrate was added to every well. The plate was read on a Flourstar Omega BMG Labtech instrument (Ortenberg, Germany) and the analysis of IC50 was performed using the Flourstar Omega BMG Labtech software.
Type: biochemical

PRMT5/MEP50 complex, sequence (O14744 whole entry): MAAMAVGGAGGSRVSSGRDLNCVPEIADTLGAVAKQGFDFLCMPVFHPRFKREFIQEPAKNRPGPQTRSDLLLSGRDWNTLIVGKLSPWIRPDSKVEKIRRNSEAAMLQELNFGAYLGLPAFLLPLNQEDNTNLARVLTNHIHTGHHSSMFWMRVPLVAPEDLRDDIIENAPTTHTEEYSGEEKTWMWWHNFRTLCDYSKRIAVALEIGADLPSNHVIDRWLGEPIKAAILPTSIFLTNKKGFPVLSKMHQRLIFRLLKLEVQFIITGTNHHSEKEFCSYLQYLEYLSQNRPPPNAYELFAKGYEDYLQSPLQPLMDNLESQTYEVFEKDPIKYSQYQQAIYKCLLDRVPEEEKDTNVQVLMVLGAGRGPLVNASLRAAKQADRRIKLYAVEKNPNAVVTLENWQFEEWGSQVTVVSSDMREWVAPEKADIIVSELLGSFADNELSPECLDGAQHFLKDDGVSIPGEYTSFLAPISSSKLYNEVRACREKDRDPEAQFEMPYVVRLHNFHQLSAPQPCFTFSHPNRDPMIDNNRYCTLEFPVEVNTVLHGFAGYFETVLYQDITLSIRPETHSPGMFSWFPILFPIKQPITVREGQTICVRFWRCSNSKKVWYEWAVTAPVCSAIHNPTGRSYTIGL
PRMT5/MEP50 complex, sequence (Q9BQA1 whole entry, further chain): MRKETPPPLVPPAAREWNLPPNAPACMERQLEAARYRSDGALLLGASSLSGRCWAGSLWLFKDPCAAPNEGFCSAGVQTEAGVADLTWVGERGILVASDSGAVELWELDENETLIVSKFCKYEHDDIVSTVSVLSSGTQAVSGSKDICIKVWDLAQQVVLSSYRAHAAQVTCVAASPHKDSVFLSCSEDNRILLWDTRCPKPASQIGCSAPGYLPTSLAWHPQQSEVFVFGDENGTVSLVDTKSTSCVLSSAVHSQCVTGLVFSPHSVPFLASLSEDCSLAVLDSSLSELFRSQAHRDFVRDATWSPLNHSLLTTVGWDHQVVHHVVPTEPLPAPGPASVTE

| Structure (SMILES) | pIC50 |
| --- | --- |
| O=C(NCC(O)CN1CCc2[nH]c3ccccc3c2C1)c1ccc(C(=O)N2C3CCC2COC3)cc1 (centres undefined) | 5.76 |
| Cn1c2c(c3ccccc31)CN(CC(O)CNC(=O)c1ccc(C(=O)N3C4CCC3COC4)cc1)CC2 (centres undefined) | 5.48 |
| CN1CCN(c2nc(NC3CCC3)cc(C(=O)NCC(O)CN3CCc4[nH]c5ccccc5c4C3)n2)CC1 (centres undefined) | 6.28 |
| O=C(NCC(O)CN1CCc2[nH]c3ccccc3c2C1)c1cc(NC2CCC2)ncn1 (centres undefined) | 5.77 |
